From patent publication US12503452B2 (Curza Global, LLC, priority 2019, dated 2025)
Structures can show the parent of a compound that is named as a salt. Where two headings read alike, the source gives them in different places.

Key:
[1] = test system: S. aureus (Sa); assay: Broth microdilution minimum inhibitory concentration (MIC); assay type: cell-based; conditions: Staphylococcus aureus, read-out: Sa + bicarb MIC
Method: (§1) A certified BSL-2 laboratory was used for testing. Compounds were evaluated using the broth microdilution minimum inhibitory concentration (MIC) and minimum bactericidal concentration (MBC) assays defined by Clinical and Laboratory Standards Institute (CLSI) in the M26-A guideline against S. aureus (Sa), E. coli (Ec), K. pneumoniae (Kp), A. baumannii (Ab), E. faecalis (Ef) and P. aeruginosa (Pa).
(§2) MICs were determined using the Clinical Laboratory and Standards Institute (CLSI) Broth Microdilution Method with slight modification. Clinical and Laboratory Standards Institute (2012). “Methods for dilution antimicrobial susceptibility tests for bacteria that grow aerobically; approved standard, 9th ed. M07-A9. Clinical and Laboratory Standards Institute, Wayne, PA” Serial two-fold dilutions of compounds are prepared in sterile clear round-bottom 96-well plates.
(§3) To prepare microdilution trays, two-fold dilutions of antimicrobial agent are prepared in growth medium: Cation-Adjusted Mueller-Hinton Broth (CAMHB), or CAMHB supplemented with sodium bicarbonate (6.25 or 25 mM final concentration prepared from a 1.0M stock solution) or CAMHB supplemented with heat inactivated human serum (Fisher Cat. #BP2657100) 0-50% by adding 200 μL of the highest concentration to be tested (64 μg/mL, for example) in row A, mixing and transferring 100 μL from row A to 100 μL growth medium in row B, then repeating the mixing and transferring through row H of the 96-well plate, discarding the excess 100 μL remaining. This slight modification to the CLSI protocol enables evaluation of MICs for 3 compounds per plate in triplicate, albeit with only 8 compound dilutions (CLSI protocol enables 2 compounds in triplicate with 10 dilutions). Bacterial suspensions are added to a final concentration of 5×10^4 CFU/well by adding 5 μL of a 1:10 dilution of a 0.5 McFarland suspension (1×10^8 CFU/mL) for each bacterium evaluated. Bacterial suspensions were prepared using the growth method described by CLSI. Well-isolated colonies (3-5 from an agar plate) were selected using a sterile loop and used to inoculate a tube containing 4 mL of CAMHB. The cultures are incubated at 35±2° C. until it achieves or exceeds the turbidity of the 0.5 McFarland standard, determined by measuring A600nm (usually two to six hours). When growth exceeds a 0.5 McFarland standard, the turbidity is adjusted with broth to be equivalent to a 0.5 McFarland standard.

[2] = test system: E. coli (Ec); assay: as above; assay type: cell-based; conditions: Escherichia coli, read-out: E. coli + bicarb MIC
Method: as §1, §2, §3

[3] = test system: A. baumannii (Ab); assay: as above; assay type: cell-based; conditions: Acinetobacter baumannii, A. baumannii, read-out: Ab + bicarb MIC
Method: as §1, §2, §3

[4] = test system: P. aeruginosa (Pa); assay: as above; assay type: cell-based; conditions: Pseudomonas aeruginosa, read-out: Pa MIC + bicarb
Method: as §1, §2, §3

[5] = test system: E. faecalis (Ef); assay: as above; assay type: cell-based; conditions: Enterococcus faecalis, read-out: Ef + bicarb MIC
Method: as §1, §2, §3

[6] = test system: E. coli S30 extract (bacterial protein synthesis); assay: E. coli S30 extract coupled transcription-translation luciferase assay (inhibition of bacterial protein synthesis); assay type: biochemical; conditions: read-out: S30 IC50 (μM/% inhib.)
How it was run: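 Luminescent read-out of luciferase made from pBESTluc DNA by E. coli S30 extract after 1 h at 37 °C with compound in an 8-point 2-fold series. Background came from no-DNA reactions. Percent inhibition was calculated against water-only controls.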

[7] = target: Rabbit Reticulocyte Lysate (eukaryotic protein synthesis); assay: Rabbit reticulocyte lysate luciferase assay (inhibition of eukaryotic protein synthesis); assay type: biochemical; conditions: read-out: Rabbit reticulocyte IC50 (μM/% inhib.)
How it was run: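 Compounds were tested in 8-point 2-fold dilution series for blocking luciferase synthesis in nuclease-treated rabbit reticulocyte lysate (30° C., 90 minutes). Luminescence read-out, corrected by no-RNA background, was expressed as % inhibition against water-only reactions.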

[8] = S. aureus, growth medium supplemented with sodium bicarbonate
[9] = E. coli, growth medium supplemented with sodium bicarbonate
[10] = growth medium supplemented with sodium bicarbonate
[11] = P. aeruginosa, growth medium supplemented with sodium bicarbonate
[12] = E. faecalis, growth medium supplemented with sodium bicarbonate
[13] = class by IC50 or % inhibition @ 1 μM
[14] = E. coli, growth medium with sodium bicarbonate
[15] = growth medium with sodium bicarbonate
[16] = P. aeruginosa, growth medium with sodium bicarbonate
[17] = E. faecalis, growth medium with sodium bicarbonate

Row | Compound | MIC [2, 9] [µg/mL] | MIC [3, 10] [µg/mL] | MIC [4, 11] [µg/mL] | MIC [5, 12] [µg/mL] | IC50 [6, 13] [µM] | IC50 [7, 13] [µM] | also measured
1 | CN(Cc1ccc(-n2ccc(NC(=O)N3CCN(C(=O)C(C)(C)N)CC3)nc2=O)cc1)CC1CC(N)C1 (stereo not shown) [Compound 127] | < 8 | > 32 | > 32 | < 8 | < 0.5 | > 1 | MIC [1, 8]: < 8 µg/mL
2 | CC(C)(N)C(=O)N1CCN(C(=O)Nc2ccn(-c3ccc(CCN4CC(C5CCNCC5)C4)cc3)c(=O)n2)CC1 [Compound 372] |  |  |  |  |  |  | MIC ([1]; S. aureus, growth medium with sodium bicarbonate): < 8 µg/mL; MIC [2, 14]: < 8 µg/mL; MIC [3, 15]: > 32 µg/mL; MIC [4, 16]: > 32 µg/mL; MIC [5, 17]: > 32 µg/mL; IC50 ([6]; % inhibition @ 1 μM): > 1 µM; IC50 ([7]; % inhibition @ 1 μM): > 1 µM
3 | C[C@](N)(CO)C(=O)N1CCN(C(=O)Nc2ccn(-c3cc(CN4CCC(N)CC4)cc(OC(F)(F)F)c3)c(=O)n2)CC1 [Compound 103] | > 32 | > 32 |  |  | > 1 | > 1 | 
4 | CC(C)(N)C(=O)N1CC2COCC(C1)N2C(=O)Nc1ccn(-c2ccc(CN3CCC(N)CC3)cc2)c(=O)n1 [Compound 85] | < 8 |  | > 32 |  | > 1 | > 1 | MIC [1, 8]: > 32 µg/mL
5 | C[C@@H]1CN(C(=O)[C@@](C)(N)CO)CCN1C(=O)Nc1ccn(-c2ccc(CN3CCC(N)CC3)cc2)c(=O)n1 [Compound 89] |  | > 32 |  | > 32 | < 0.5 | > 1 | 
6 | CC(N)C1CCCN(Cc2ccc(-n3ccc(NC(=O)N4CCN(C(=O)C(C)(C)N)CC4)nc3=O)cc2)C1 (stereo not shown) [Compound 109] | < 8 |  | > 32 |  | < 0.5 | > 1 | MIC [1, 8]: < 8 µg/mL
7 | CC1CN(Cc2ccc(-n3ccc(NC(=O)N4CCN(C(=O)[C@@](C)(N)CO)CC4)nc3=O)cc2)CCC1N (stereo partly shown) [Compound 223] |  |  |  |  | 0.5 to 1 | > 1 | MIC [2, 14]: < 8 µg/mL; MIC [3, 15]: > 32 µg/mL; MIC [4, 16]: > 32 µg/mL; MIC [5, 17]: < 8 µg/mL
8 | CC(N)C1CCCN(CCc2ccc(-n3ccc(NC(=O)N4CCN(C(=O)C(C)(C)N)CC4)nc3=O)cc2)C1 (stereo not shown) [Compound 22] | < 8 |  | > 32 |  | < 0.5 | > 1 | MIC [1, 8]: < 8 µg/mL
9 | CC(C)(N)C(=O)N1CCN(C(=O)Nc2ccn(-c3ccc(CN4CCC(N)CC4)cc3)c(=O)n2)C(c2ccccc2)C1 (stereo not shown) [Compound 59] | > 32 | > 32 | > 32 |  | > 1 | > 1 | 
10 | NC1CCN(Cc2ccc(-n3ccc(NC(=O)N4CC(N)C4)nc3=O)cc2)CC1 [Compound 49] | > 32 | > 32 | > 32 |  | > 1 | > 1 | 
11 | C[C@](N)(CO)C(=O)N1CCN(C(=O)Nc2ccn(-c3ccc(CCN4CCC(NC(=N)N)CC4)cc3)c(=O)n2)CC1 [Compound 349, hydrochloride salt] |  |  |  |  |  |  | MIC [1]: 8 to 32 µg/mL; MIC [2]: < 8 µg/mL; IC50 ([6]; % inhibition @ 1 μM): < 0.5 µM; IC50 ([7]; % inhibition @ 1 μM): 0.5 to 1 µM
12 | CC(N)[C@H]1CCN(Cc2ccc(-n3ccc(NC(=O)N4CCN(C(=O)C(C)(C)N)CC4)nc3=O)cc2)C1 (stereo partly shown) [Compound 45] |  | > 32 |  | < 8 | < 0.5 | > 1 | 
13 | C[C@](N)(CO)C(=O)N1CCN(C(=O)Nc2ccn(-c3ccc(CN4CCC(N)CC4)c(Cl)c3)c(=O)n2)CC1 [Compound 98] | < 8 |  | > 32 |  | < 0.5 | > 1 | MIC [1, 8]: < 8 µg/mL
14 | CC(N)[C@@H]1CCN(Cc2ccc(-n3ccc(NC(=O)N4CCN(C(=O)C(C)(C)N)CC4)nc3=O)cc2)C1 (stereo partly shown) [Compound 44] |  | > 32 |  | < 8 | < 0.5 | > 1 | 
15 | C[C@@H]1CN(C(=O)Nc2ccn(-c3ccc(CN4CCC(N)CC4)cc3)c(=O)n2)[C@@H](C)CN1C(=O)C(C)(C)N [Compound 74] | > 32 | > 32 | > 32 |  |  | > 1 | 
16 | CC(C)(N)C(=O)N1CCN(C(=O)Nc2ccn(-c3ccc(CN4CC(CCN)C4)cc3)c(=O)n2)CC1 [Compound 134] | < 8 | > 32 | > 32 | 8 to 32 | < 0.5 | > 1 | 
17 | CC(N)C1CCN(CCc2ccc(-n3ccc(NC(=O)N4CCN(C(=O)C(C)(C)N)CC4)nc3=O)cc2)CC1 (stereo not shown) [Compound 168] |  |  |  |  | < 0.5 | > 1 | MIC [3, 15]: > 32 µg/mL; MIC [5, 17]: 8 to 32 µg/mL
18 | CNC(C)(C)C(=O)N1CCN(C(=O)Nc2ccn(-c3ccc(CN4CCC(N)CC4)cc3)c(=O)n2)CC1 [Compound 96] | < 8 |  | > 32 |  | > 1 | > 1 | MIC [1, 8]: < 8 µg/mL
19 | CC(C)(N)C(=O)N1C2COCC1CN(C(=O)Nc1ccn(-c3ccc(CN4CCC(N)CC4)cc3)c(=O)n1)C2 [Compound 68] | < 8 |  | > 32 |  | 0.5 to 1 | > 1 | MIC [1, 8]: > 32 µg/mL
20 | CC(C)(N)C(=O)N1CCN(C(=O)Nc2ccn(-c3ccc(CNCC4(O)CNC4)cc3)c(=O)n2)CC1 [Compound 376] |  |  |  |  |  |  | MIC [2, 14]: < 8 µg/mL; MIC [3, 15]: > 32 µg/mL; MIC [4, 16]: > 32 µg/mL; IC50 ([6]; % inhibition @ 1 μM): < 0.5 µM; IC50 ([7]; % inhibition @ 1 μM): > 1 µM
21 | C[C@](N)(CO)C(=O)N1CCN(C(=O)Nc2ccn(-c3ccc(CCN4CCC[C@@H](N)C4)cc3)c(=O)n2)CC1 [Compound 12] | > 32 | > 32 | > 32 |  | 0.5 to 1 | > 1 | 
22 | C[C@H]1CN(Cc2ccc(-n3ccc(NC(=O)N4CCN(C(=O)C(C)(C)N)CC4)nc3=O)cc2)CC[C@H]1N (stereo in doubt) [Compound 297, hydrochloride salt] |  |  |  |  | 0.5 to 1 | > 1 | MIC [1]: < 8 µg/mL; MIC [2]: < 8 µg/mL; MIC [4]: > 32 µg/mL; MIC [5]: 8 to 32 µg/mL
23 | C[C@@H]1CN(CCc2ccc(-n3ccc(NC(=O)N4CCN(C(=O)C(C)(C)N)CC4)nc3=O)cc2)CC[C@H]1N [Compound 41] |  | > 32 |  | 8 to 32 | < 0.5 | > 1 | 
24 | Cc1cc(-n2ccc(NC(=O)N3CCN(C(=O)C(C)(C)N)CC3)nc2=O)ccc1CN1CCC(N)CC1 [Compound 91] | < 8 | > 32 | > 32 | < 8 | < 0.5 | > 1 | 
25 | CC(N)[C@@H]1CCN(CCc2ccc(-n3ccc(NC(=O)N4CCN(C(=O)C(C)(C)N)CC4)nc3=O)cc2)C1 (stereo partly shown) [Compound 43] | < 8 | > 32 | 8 to 32 | 8 to 32 | < 0.5 | > 1 | 
26 | CC(N)[C@H]1CCN(CCc2ccc(-n3ccc(NC(=O)N4CCN(C(=O)C(C)(C)N)CC4)nc3=O)cc2)C1 (stereo partly shown) [Compound 42] | < 8 | > 32 | 8 to 32 | 8 to 32 | < 0.5 | > 1 | 
27 | CC(C)(N)C(=O)N1CCN(C(=O)Nc2ccn(-c3ccc(CN4CC(CN)C4)cc3)c(=O)n2)CC1 [Compound 133] |  | > 32 |  | > 32 | < 0.5 | > 1 | 
